Laboratory results published in the supplement of paper PMC4932681.
Structures can show the parent of a compound that is named as a salt.

Legend:
Test in all cases: viability inhibition at highest dose (% inhibition); higher = more growth inhibition
T-47D Tam2 = conditions: 4-OH-tamoxifen in medium 1 µM; 72 h
Summary of the method: (§1)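 Breast cancer cell lines and their resistant derivatives were seeded into 384-well plates holding FO2Baq library drugs at five concentrations spanning a 10 000-fold range. Resistant lines were in medium with 1 μM of the selecting drug. Cells were incubated 72 h at 37 °C, and CellTiter-Glo viability was read on a PHERAstar and normalised to vehicle-only and positive controls. Drug sensitivity score, relative IC50 (curve midpoint) and top-dose inhibition came from logistic dose–response fits (Breeze pipeline).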

T-47D Tam1 = conditions: 4-OH-tamoxifen in medium 1 µM; 72 h
Summary of the method: as §1

BT-474 Tam2 = conditions: 4-OH-tamoxifen in medium 1 µM; 72 h
Summary of the method: as §1

BT-474 Tam1 = conditions: 4-OH-tamoxifen in medium 1 µM; 72 h
Summary of the method: as §1

ZR-75-1 Tam1 = conditions: 4-OH-tamoxifen in medium 1 µM; 72 h
Summary of the method: as §1

ZR-75-1 Tam2 = conditions: 4-OH-tamoxifen in medium 1 µM; 72 h
Summary of the method: as §1

MCF-7 Tam1 = conditions: 4-OH-tamoxifen in medium 1 µM; 72 h
Summary of the method: as §1

T-47D = conditions: 72 h
Summary of the method: as §1

BT-474 = conditions: 72 h
Summary of the method: as §1

ZR-75-1 = conditions: 72 h
Summary of the method: as §1

MCF-7 = conditions: 72 h
Summary of the method: as §1

Q: What does the source list for `O=C(/C=C/c1cccnc1)NCCCCC1CCN(C(=O)c2ccccc2)CC1` [Daporinad (FK-866 HCl)] (drug 1000 nM)?
A: viability inhibition at highest dose (T-47D Tam2): 85.3; viability inhibition at highest dose (T-47D Tam1): 91.9; viability inhibition at highest dose (BT-474 Tam2): 17.4; viability inhibition at highest dose (BT-474 Tam1): 47.2; viability inhibition at highest dose (ZR-75-1 Tam1): -12.7; viability inhibition at highest dose (ZR-75-1 Tam2): 0.891; viability inhibition at highest dose (MCF-7 Tam1): -5.53; viability inhibition at highest dose (T-47D; 4-OH-tamoxifen in medium 0 µM): 92.2; viability inhibition at highest dose (T-47D; 4-OH-tamoxifen in medium 1 µM): 90.2; viability inhibition at highest dose (BT-474; 4-OH-tamoxifen in medium 0 µM): 12.2; viability inhibition at highest dose (BT-474; 4-OH-tamoxifen in medium 1 µM): 64.7; viability inhibition at highest dose (ZR-75-1; 4-OH-tamoxifen in medium 0 µM): -2.09; viability inhibition at highest dose (ZR-75-1; 4-OH-tamoxifen in medium 1 µM): -11.5; viability inhibition at highest dose (MCF-7; 4-OH-tamoxifen in medium 0 µM): 76.6; viability inhibition at highest dose (MCF-7; 4-OH-tamoxifen in medium 1 µM): 67.9

Q: With `Clc1ccc(Nc2nnc(Cc3ccncc3)c3ccccc23)cc1` [Vatalanib] (drug 10000 nM) as the compound, how does the “viability inhibition at highest dose” value (T-47D Tam2) read?
A: The value was 7.23.

Q: And the “viability inhibition at highest dose” value (T-47D Tam1)?
A: Its value is 26.3.

Q: And the “viability inhibition at highest dose” value (BT-474 Tam2)?
A: The value was 10.3.

Q: What about the “viability inhibition at highest dose” value (BT-474 Tam1) of the same compound?
A: Its value is 10.7.

Q: What about the “viability inhibition at highest dose” value (ZR-75-1 Tam1) of the same compound?
A: Its value is -0.807.

Q: And the “viability inhibition at highest dose” value (ZR-75-1 Tam2)?
A: Its value is 6.59.

Q: What about the “viability inhibition at highest dose” value (MCF-7 Tam1) of the same compound?
A: The value was -1.69.

Q: And the “viability inhibition at highest dose” value (T-47D; 4-OH-tamoxifen in medium 0 µM)?
A: The value was -9.2.

Q: What about the “viability inhibition at highest dose” value (T-47D; 4-OH-tamoxifen in medium 1 µM) of the same compound?
A: Its value is -8.84.

Q: What about the “viability inhibition at highest dose” value (BT-474; 4-OH-tamoxifen in medium 0 µM) of the same compound?
A: Its value is -9.23.

Q: What about the “viability inhibition at highest dose” value (BT-474; 4-OH-tamoxifen in medium 1 µM) of the same compound?
A: The value was 0.775.

Q: What about the “viability inhibition at highest dose” value (ZR-75-1; 4-OH-tamoxifen in medium 0 µM) of the same compound?
A: Its value is -6.3.

Q: And the “viability inhibition at highest dose” value (ZR-75-1; 4-OH-tamoxifen in medium 1 µM)?
A: Its value is -2.47.

Q: And the “viability inhibition at highest dose” value (MCF-7; 4-OH-tamoxifen in medium 0 µM)?
A: The value was -22.9.

Q: And the “viability inhibition at highest dose” value (MCF-7; 4-OH-tamoxifen in medium 1 µM)?
A: Its value is 8.24.

Q: With `CCCCC(=O)OCC(=O)[C@]1(O)Cc2c(O)c3c(c(O)c2[C@@H](O[C@H]2C[C@H](NC(=O)C(F)(F)F)[C@H](O)[C@H](C)O2)C1)C(=O)c1c(OC)cccc1C3=O` [Valrubicin] (drug 10000 nM) as the compound, how does the “viability inhibition at highest dose” value (T-47D Tam2) read?
A: Its value is 63.2.

Q: And the “viability inhibition at highest dose” value (T-47D Tam1)?
A: The value was 67.9.

Q: And the “viability inhibition at highest dose” value (BT-474 Tam2)?
A: The value was 59.5.

Q: What about the “viability inhibition at highest dose” value (BT-474 Tam1) of the same compound?
A: Its value is 75.8.

Q: And the “viability inhibition at highest dose” value (ZR-75-1 Tam1)?
A: Its value is 70.3.

Q: And the “viability inhibition at highest dose” value (ZR-75-1 Tam2)?
A: The value was 85.4.

Q: What about the “viability inhibition at highest dose” value (MCF-7 Tam1) of the same compound?
A: The value was 30.4.

Q: What about the “viability inhibition at highest dose” value (T-47D; 4-OH-tamoxifen in medium 0 µM) of the same compound?
A: Its value is 58.2.

Q: And the “viability inhibition at highest dose” value (T-47D; 4-OH-tamoxifen in medium 1 µM)?
A: The value was 68.2.

Q: What about the “viability inhibition at highest dose” value (BT-474; 4-OH-tamoxifen in medium 0 µM) of the same compound?
A: The value was 42.6.

Q: What about the “viability inhibition at highest dose” value (BT-474; 4-OH-tamoxifen in medium 1 µM) of the same compound?
A: Its value is 77.1.

Q: What about the “viability inhibition at highest dose” value (ZR-75-1; 4-OH-tamoxifen in medium 0 µM) of the same compound?
A: The value was 59.8.

Q: And the “viability inhibition at highest dose” value (ZR-75-1; 4-OH-tamoxifen in medium 1 µM)?
A: The value was 58.9.

Q: What about the “viability inhibition at highest dose” value (MCF-7; 4-OH-tamoxifen in medium 0 µM) of the same compound?
A: The value was 55.

Q: What about the “viability inhibition at highest dose” value (MCF-7; 4-OH-tamoxifen in medium 1 µM) of the same compound?
A: The value was 77.

Q: How did the “viability inhibition at highest dose” value (T-47D Tam2) turn out when `CN(C)c1nc(N(C)C)nc(N(C)C)n1` [Altretamine] (drug 10000 nM) was run?
A: The value was 5.82.

Q: And the “viability inhibition at highest dose” value (T-47D Tam1)?
A: The value was 52.4.

Q: What about the “viability inhibition at highest dose” value (BT-474 Tam2) of the same compound?
A: The value was 0.399.

Q: What about the “viability inhibition at highest dose” value (BT-474 Tam1) of the same compound?
A: Its value is 4.18.

Q: What about the “viability inhibition at highest dose” value (ZR-75-1 Tam1) of the same compound?
A: Its value is 0.782.

Q: And the “viability inhibition at highest dose” value (ZR-75-1 Tam2)?
A: The value was -11.8.

Q: And the “viability inhibition at highest dose” value (MCF-7 Tam1)?
A: The value was -9.06.

Q: What about the “viability inhibition at highest dose” value (T-47D; 4-OH-tamoxifen in medium 0 µM) of the same compound?
A: Its value is -20.9.

Q: What about the “viability inhibition at highest dose” value (T-47D; 4-OH-tamoxifen in medium 1 µM) of the same compound?
A: Its value is 18.5.

Q: What about the “viability inhibition at highest dose” value (BT-474; 4-OH-tamoxifen in medium 0 µM) of the same compound?
A: Its value is -14.8.

Q: And the “viability inhibition at highest dose” value (BT-474; 4-OH-tamoxifen in medium 1 µM)?
A: Its value is -18.3.

Q: And the “viability inhibition at highest dose” value (ZR-75-1; 4-OH-tamoxifen in medium 0 µM)?
A: Its value is -19.3.

Q: What about the “viability inhibition at highest dose” value (ZR-75-1; 4-OH-tamoxifen in medium 1 µM) of the same compound?
A: Its value is -9.44.

Q: And the “viability inhibition at highest dose” value (MCF-7; 4-OH-tamoxifen in medium 0 µM)?
A: Its value is -20.5.

Q: What about the “viability inhibition at highest dose” value (MCF-7; 4-OH-tamoxifen in medium 1 µM) of the same compound?
A: Its value is 10.6.

Q: How did the “viability inhibition at highest dose” value (T-47D Tam2) turn out when `O=C(O)CCCc1ccc(N(CCCl)CCCl)cc1` [Chlorambucil] (drug 10000 nM) was run?
A: Its value is 9.69.

Q: What about the “viability inhibition at highest dose” value (T-47D Tam1) of the same compound?
A: The value was -7.66.

Q: What about the “viability inhibition at highest dose” value (BT-474 Tam2) of the same compound?
A: Its value is -11.1.

Q: And the “viability inhibition at highest dose” value (BT-474 Tam1)?
A: The value was -1.33.

Q: What about the “viability inhibition at highest dose” value (ZR-75-1 Tam1) of the same compound?
A: The value was 3.96.

Q: And the “viability inhibition at highest dose” value (ZR-75-1 Tam2)?
A: The value was -11.1.

Q: And the “viability inhibition at highest dose” value (MCF-7 Tam1)?
A: The value was -8.39.

Q: And the “viability inhibition at highest dose” value (T-47D; 4-OH-tamoxifen in medium 0 µM)?
A: The value was -20.9.

Q: What about the “viability inhibition at highest dose” value (T-47D; 4-OH-tamoxifen in medium 1 µM) of the same compound?
A: Its value is 1.91.

Q: What about the “viability inhibition at highest dose” value (BT-474; 4-OH-tamoxifen in medium 0 µM) of the same compound?
A: The value was -5.56.

Q: And the “viability inhibition at highest dose” value (BT-474; 4-OH-tamoxifen in medium 1 µM)?
A: Its value is -5.81.

Q: And the “viability inhibition at highest dose” value (ZR-75-1; 4-OH-tamoxifen in medium 0 µM)?
A: Its value is -4.67.

Q: What about the “viability inhibition at highest dose” value (ZR-75-1; 4-OH-tamoxifen in medium 1 µM) of the same compound?
A: Its value is -2.49.

Q: What about the “viability inhibition at highest dose” value (MCF-7; 4-OH-tamoxifen in medium 0 µM) of the same compound?
A: The value was 2.18.

Q: What about the “viability inhibition at highest dose” value (MCF-7; 4-OH-tamoxifen in medium 1 µM) of the same compound?
A: The value was -4.5.

Q: Which results are given for `CC[C@@H]1C(=O)N(C)c2cnc(Nc3ccc(C(=O)N[C@H]4CC[C@H](N5CCN(CC6CC6)CC5)CC4)cc3OC)nc2N1C(C)C` [Volasertib (BI 6727)] (drug 1000 nM)?
A: viability inhibition at highest dose (T-47D Tam2): 21.4; viability inhibition at highest dose (T-47D Tam1): 24.6; viability inhibition at highest dose (BT-474 Tam2): 9.62; viability inhibition at highest dose (BT-474 Tam1): 26; viability inhibition at highest dose (ZR-75-1 Tam1): 18.7; viability inhibition at highest dose (ZR-75-1 Tam2): 18.7; viability inhibition at highest dose (MCF-7 Tam1): 0.498; viability inhibition at highest dose (T-47D; 4-OH-tamoxifen in medium 0 µM): 30.8; viability inhibition at highest dose (T-47D; 4-OH-tamoxifen in medium 1 µM): -1.17; viability inhibition at highest dose (BT-474; 4-OH-tamoxifen in medium 0 µM): 13.2; viability inhibition at highest dose (BT-474; 4-OH-tamoxifen in medium 1 µM): 25.5; viability inhibition at highest dose (ZR-75-1; 4-OH-tamoxifen in medium 0 µM): 7.01; viability inhibition at highest dose (ZR-75-1; 4-OH-tamoxifen in medium 1 µM): 16.1; viability inhibition at highest dose (MCF-7; 4-OH-tamoxifen in medium 0 µM): 24.2; viability inhibition at highest dose (MCF-7; 4-OH-tamoxifen in medium 1 µM): 24.7
